Entries after “also recorded” stand apart in the source; their conditions may differ.
Assays:
C57BL6 male mice = assay: Hemorrhage anemia model, Alzet pump delivery; assay type: in vivo, mouse
Procedure: Mice were anesthetized with isoflurane. Twenty five percent of their calculated circulating blood volume (calculated based on Animal Research Advisory Committee Guidelines for survival bleeding of mice and rats, OACU, NIH) was drained from the retro-orbital plexus.
The reticulocyte ratio of peripheral blood was determined using the Retic-Count flow kit (BD Biosciences) according to the manufacturer's instructions. Hematocrit values were measured with an automated analyzer and microhematocrit tubes. The reticulocyte index was calculated as follows: reticulocyte ratio %/total gated cells×hematocrit/45.
To infuse vasopressin into the mice, AVP filled ALZET pumps were implanted subcutaneously on the dorsal aspect of the neck (5 ug/day, Alzet 1007D—7 days, 2002-14 days). Vasopressin was also given immediately and 6 hours later as a bolus injection (100 μg/kg). Alzet pumps were inserted subcutaneously. The dimensions and pump specification are: ALZET, (DURECT Corporation, Cupertino, Calif., USA) mini-osmotic pump models 1007D or 2002. The pumps deliver 0.5 μl/h of the desired substance for a for 2-week period. In some cases, erythropoietin antibody (100 μg/mice) was given before anesthesia with the corresponding control antibody. […] Following the initial hemorrhage blood samples were taken at 2, 4 and in some cases 6 days later to determine hematocrit and corrected reticulocyte values.

mice [1] = assay: Phenylhydrazine (hemolytic) anemia model; assay type: in vivo, mouse; conditions: day 2 and day 4
Procedure: Phenylhydrazine, a known hemolytic agent, was injected intraperitoneally by administration of phenylhydrazine hydrochloride ip. 50 mg/kg body wt. (injection volume range of 100-150 μls) on day 0 and 1 and then mice were implanted with ALZET micro-osmotic pumps as described above to deliver AVP or vehicle. Blood samples were taken at 2, 4 and in some cases 6 and 14 days later to determine hematocrit and corrected reticulocyte values.

mice [2] = assay: Peripheral blood values following EPO vs. AVP injections in hemorrhage; assay type: in vivo, mouse
Procedure: AVP (100 μg/kg bodyweight) or EPOetin alfa (50 U/bodyweight, EPOgen) was administered intra-peritoneally to mice, immediately following hemorrhage. […] Hematocrit and reticulocyte counts were measured at different time points.

human CD34^+ cells = assay: Brattleboro/LE rat BMSC and human CD34+ progenitor co-culture, BrdU; assay type: cell-based; conditions: AVP 10^−13 M
Procedure: Rat BMSCs were isolated and cultured from the bone marrow of 5-6 weeks old male Brattleboro (animals that lack the ability to produce vasopressin) and Long-Evans rats (control strain for the Brattleboro rats) as described before. For flow cytometry studies, 100000 rat BMSCs per well were plated in αMEM medium (20% FBS) in 12 well plates in quadruplicates and incubated overnight. Next day, medium was removed and 200000 human CD34 cells per well were added in Stemspan medium with factors (human SCF, TPO, FLT3L and G-CSF 100 ng/ml). Co-culture was stimulated with AVP or left unstimulated (PBS) and next day BrdU was added. After 24 hours the cells were trypsinized, brought up in αMEM (20% FBS), resuspended and strained through 70 μm cell strainer. For normalization, Sigma beads were added to each sample tube. Cells were washed with FACS buffer and stained for human CD34 and CD38. The subsequent steps were done according to the BD BrdU Flow kit protocol. At flow cytometry measurements, cell numbers were normalized to Sigma bead numbers.

splenectomized mice = assay: Hemorrhage in splenectomized mice; assay type: in vivo, mouse; conditions: splenectomized mice vs controls
Procedure: Three to four month old mice were splenectomized and recovered for a month. AVP was administered at the time of bleeding and blood was sampled 2 and 4 days later for hematocrit and reticulocyte measurements.

BM erythroid cells = assay: Bone marrow erythroid populations after injection of AVP, AVPR1B agonist or EPO (flow cytometry, EdU); assay type: in vivo, mouse
Procedure: In vivo AVP-treated/hemorrhaged/control mice were IP injected with 10 μM/1000 g BW 5-ethynyl-2′-deoxyuridine (EdU: Life Technologies) for 2 hours. Single cell suspensions from the tibial and femoral bone marrows of mice (n=5 in each group) were prepared. After lysing the cells with ACK buffer, cells of the erythroid lineage were labeled with antibodies against TER-119 (BD Pharmingen) and CD71 (BD Pharmingen) or CD44 (BD Pharmingen) conjugated with FITC or PE fluorophores. After washing with FACS buffer, cells were fixed/permeabilized according to the manufacturer's recommendation (Life Technologies). Incorporated EdU molecules were visualized by a click reaction with Alexa Fluor 647-conjugated picolyl-azide and cell nuclei were stained with DAPI. Cell cycle characteristics of erythroid cells were detected with a Beckman-Coulter MoFlo Astrios flow cytometer.
For lineage negative, Sca-1 positive and c-kit positive (LSK) cell sorting, rat anti-mouse lineage antibodies (anti CD4, CD8, B220, Ter119, Gr-1, CD11b) were added to bone marrow cell suspension after ACK lysis and cells were depleted using anti-rat magnetic beads (Biomag anti rat IgG, Qiagen). Lineage negative cells were stained with c-kit PE/Cy5 and Sca-1-FITC antibodies and the double positive population was further enriched with anti-PE and anti-FITC magnetic beads (Miltenyi). LSK cells were sorted on a DAKO Cytomation MoFlo cell sorter. For LSK subpopulation sorting lineage depleted cells were stained for c-kit, Sca-1, CD48, CD150 and CD34 and 4 LSK subpopulations were sorted using the gating strategy described by Wilson et al. (34). Sorted cells from HSC (LSK, CD34^−, CD48^−, CD150^+), MPP1 (LSK, CD34^+, CD48^−, CD150^+), MPP2 (LSK, CD34^+, CD48^+, CD150^+) and MPP3/4 (LSK, CD34^+, CD48^+, CD150^−) subpopulations were plated in 1×PBS onto coated glass slides fixed with 2% PFA and immunostained for AVPR1B. Erythropoietic progenitors were sorted based on CD71 and Ter119 markers. All cells were sorted using a MoFlo Astrios cell sorter (Beckman Coulter). Competitive Repopulation Assay
The inventors determined that AVP induced a fast hematocrit response in severe anemia that is independent of EPO. AVP receptors in the HSPCs was confirmed and they next decided to examine how AVP affects the erythroid lineage cells (developmental stages) in the BM. […] In cell populations sorted as above, the presence of AVPR1B and EPO receptor (EPOR) mRNA using QPCR was also determined. […] AVPR2 mRNA was detected in all populations, whereas AVPR1A mRNA was barely detectable.

## NC(=O)CC[C@@H]1NC(=O)[C@H](Cc2ccccc2)NC(=O)[C@H](Cc2ccc(O)cc2)NC(=O)[C@@H](N)CSSC[C@@H](C(=O)N2CCC[C@H]2C(=O)N[C@@H](CCCN=C(N)N)C(=O)NCC(N)=O)NC(=O)[C@H](CC(N)=O)NC1=O [AVP, [Arg8]-Vasopressin]
C57BL6 male mice; 2 days post hemorrhage
  corrected reticulocyte numbers: significant increase; also recorded: had increased
  hematocrit: significant increase
C57BL6 male mice; 4 days post hemorrhage
  hematocrit: significantly higher hematocrit
C57BL6 male mice; anemia models, FACS with thiazol orange
  number of highly fluorescent (high intensity) reticulocytes: significantly increased
C57BL6 male mice; between days 2 and 4 after removal of 25% of blood volume
  hematocrits: also increased
C57BL6 male mice; hemorrhage, FIG. 9D
  recovery times: significantly improved recovery times
Mice [1]
  outcome measures (hematocrit, corrected reticulocytes): significantly improved outcome measures on day 2 and to some extent on day 4
Mice [2]; AVP 100 μg/kg i.p. just after hemorrhage
  increase in hematocrit compared to PBS: only statistically significant at 12 and 24 hours; also recorded: significant increase in hematocrit 12 hours following the insult
Mice [2]; after hemorrhage
  differences in hematocrit between EPO and AVP: significant at 6, 12 and 24 hours and disappeared 5 days after hemorrhage
Human CD34^+ cells; Brattleboro-derived BMSCs
  proliferation of CD34+ cells: failed to induce proliferation
Human CD34^+ cells; LE BMSCs
  proliferation of CD34+ cells: did cause CD34^+ cells to proliferate
Splenectomized mice
  AVP-induced hematocrit response: no different from controls
BM erythroid cells; 16 hours after injection
  BM erythroid progenitors (Ter-119, CD 71 gated area): clear increase in progenitors
BM erythroid cells; EdU, Annexin V and DAPI
  apoptosis in the late progenitor populations: significant decrease in apoptosis
BM erythroid cells; after hemorrhage, AVP vs EPO
  effect on more matured erythroid populations: much more robust effect than EPO
BM erythroid cells; bone marrow, flow cytometry
  numbers of more mature erythroid cells (polychromatic and orthochromatic erythroblasts/reticulocytes): significantly increased
